Test system: CLP-induced sepsis in C57BL/6 mice
Assay: Lung myeloperoxidase activity in CLP mice
Format: in vivo, mouse
Conditions: C11 10 mg/kg i.p. once after CLP (Figure 5 legend: 10 μg/kg); 20 h; n = 5-7/group; vs. CLP vehicle
From the text: Mice were anesthetized with 2% isoflurane in oxygen, and sepsis was induced via cecal ligation and puncture (CLP) ([26]). A 1-cm midline abdominal incision was made to expose the cecum, which was ligated 1-cm proximal to its end using a 4-0 silk suture. The cecum then was perforated with a single through-and-through puncture using a 22-gauge needle, positioned midway between the ligation and the tip of the cecum. A small amount of fecal material was gently extruded from the perforation sites to confirm the patency of the punctures, and the cecum was subsequently returned to the peritoneal cavity. Following abdominal closure, resuscitation was provided via subcutaneous (s.c.) injection of 500 µL normal saline. Postoperative analgesia was administered with a single dose of 0.1 mg/kg buprenorphine. […]
Approximately 50 to 100 mg of septic lung tissue, previously snap-frozen in liquid nitrogen and pulverized into a fine powder, was homogenized in potassium phosphate (KPO4) buffer containing 0.5% hexadecyltrimethylammonium bromide (HTAB; MilliporeSigma, Burlington, MA). […] The enzymatic reaction was monitored by measuring light absorbance at 460 nm over a five-minute period. MPO activity was expressed as units per gram of tissue, where one unit was defined as the change in absorbance per minute.

Substance: 126-ELKNRTVSWFS-136 [Compound C11]
- lung MPO activity: attenuated

From publication PMC12187842, “A novel molecule targeting neutrophil-mediated B-1a cell trogocytosis attenuates sepsis-induced acute lung injury” (Frontiers in Immunology, 2025)
